Reference: the supplement of paper PMC10307832

Legend:
Assay in all cases: relative viability (nuclei count vs DMSO), 5 days (fraction); higher = more cells survive
Masitinib + Phenformin = compound: Cc1ccc(NC(=O)c2ccc(CN3CCN(C)CC3)cc2)cc1Nc1nc(-c2cccnc2)cs1 [Masitinib] + N=C(N)NC(=N)NCCc1ccccc1 [Phenformin] (partner 250 µM)
Procedure, shortened: (§1)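 Lung cancer cell lines in 1536-well plates were dosed by pin tool the day after seeding, either with one drug alone or with a fixed anchor-drug dose plus five library-drug doses (not always all listed) in √10 steps. After 5 days, cells were fixed and their nuclei stained in one step (final 0.05% Triton X-100, 1% formaldehyde, 1 ug/ml Hoechst), then counted on 4× images. Relative viability is the nuclei count in treated wells divided by that in vehicle wells. Values are medians of duplicate plates.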

[1] = compound: CC1=CC(=CC=C1)NC2=NC(=CS2)C3=CC=NC=C3 + CC(C)C[C@H](NC(=O)[C@H](Cc1ccccc1)NC(=O)c1cnccn1)B(O)O [Bortezomib] (partner 0.002 µM)
Procedure, shortened: as §1

[2] = compound: CC1=CC(=CC=C1)NC2=NC(=CS2)C3=CC=NC=C3 + CC1(C)CCC(c2ccc(Cl)cc2)=C(CN2CCN(c3ccc(C(=O)NS(=O)(=O)c4ccc(N[C@H](CCN5CCOCC5)CSc5ccccc5)c(S(=O)(=O)C(F)(F)F)c4)cc3)CC2)C1 [Navitoclax] (partner 0.5 µM)
Procedure, shortened: as §1

[3] = compound: CC1=CC(=CC=C1)NC2=NC(=CS2)C3=CC=NC=C3 + Nc1nc2[nH]cc(CCc3ccc(C(=O)N[C@@H](CCC(=O)O)C(=O)O)cc3)c2c(=O)[nH]1 [Pemetrexed] (partner 0.2 µM)
Procedure, shortened: as §1

Cell Line | relative viability (Masitinib + Phenformin; first compound 0.03162 µM) | relative viability (Masitinib + Phenformin; first compound 0.1 µM) | relative viability (Masitinib + Phenformin; first compound 0.3162 µM) | relative viability (Masitinib + Phenformin; first compound 1 µM) | relative viability ([1]; first compound 0.08 µM) | relative viability ([1]; first compound 0.253 µM) | relative viability ([1]; first compound 0.8 µM) | relative viability ([1]; first compound 2.53 µM) | relative viability ([1]; first compound 8 µM) | relative viability ([2]; first compound 0.8 µM) | relative viability ([2]; first compound 2.53 µM) | relative viability ([2]; first compound 8 µM) | relative viability ([3]; first compound 0.08 µM) | relative viability ([3]; first compound 0.253 µM) | relative viability ([3]; first compound 0.8 µM) | relative viability ([3]; first compound 2.53 µM) | relative viability ([3]; first compound 8 µM) | relative viability (Masitinib + Phenformin; first compound 0.01 µM) | relative viability ([2]; first compound 0.08 µM) | relative viability ([2]; first compound 0.253 µM)
LCLC-97TM1 | 0.458 | 0.407 | 0.492 | 0.446 | 0.715 | 0.478 | 0.476 | 0.365 | 0.463 | 0.641 | 0.385 | 0.418 | 0.168 | 0.161 | 0.19 | 0.168 | 0.182 |  |  | 
LOU-NH91 | 0.606 | 0.683 | 0.54 | 0.605 | 0.446 | 0.457 | 0.447 | 0.461 | 0.398 | 0.625 | 0.774 | 0.434 | 0.38 | 0.391 | 0.348 | 0.366 | 0.366 | 0.656 | 0.611 | 0.619
LU99A | 0.807 | 0.859 | 0.856 | 0.703 |  | 1.09 | 1.15 | 1.06 | 1.05 | 0.838 | 0.835 | 0.978 | 0.141 | 0.199 | 0.171 | 0.178 | 0.182 | 0.868 |  | 0.861
LXF-289 | 0.514 | 0.477 | 0.522 | 0.451 | 0.952 | 0.959 | 0.988 | 0.978 | 0.823 | 0.939 | 0.908 | 0.822 | 0.851 | 0.924 | 0.708 | 0.871 | 0.792 | 0.461 | 0.944 | 0.921
NCI-H23 | 0.734 | 0.881 | 0.781 | 0.748 | 1.17 | 1.08 | 1.29 | 0.866 | 0.739 | 1 | 0.831 | 0.999 | 0.629 | 0.447 | 0.66 | 0.582 | 0.778 | 0.846 | 0.822 | 0.832
NCI-H322M | 0.799 | 0.741 | 0.75 | 0.715 | 1.18 | 1.29 | 1.14 | 1.22 | 1.03 | 1.19 | 1.29 | 1.12 | 0.564 | 0.576 | 0.608 | 0.615 | 0.624 | 0.789 | 1.19 | 1.12
NCI-H441 | 1.05 | 0.837 | 0.94 | 0.843 | 0.423 | 0.361 | 0.427 | 0.53 | 0.136 | 0.673 | 0.64 | 0.777 | 0.265 | 0.265 | 0.246 | 0.255 | 0.255 | 0.654 | 0.327 | 0.42
NCI-H460 | 0.586 | 0.508 | 0.457 | 0.503 | 1.03 | 1.13 | 0.945 | 0.902 | 0.843 | 1.08 | 1.13 | 1 | 0.0627 | 0.0625 | 0.0614 | 0.0648 | 0.0687 | 0.482 | 1.13 | 1.08
NCI-H520 | 0.648 | 0.664 | 0.584 | 0.457 | 0.586 | 0.505 | 0.56 | 0.786 | 0.235 | 1.15 | 1.12 | 1.15 | 0.706 | 0.678 | 0.677 | 0.865 | 0.644 | 0.633 | 1.04 | 1.09
NCI-H596 | 0.769 | 0.824 | 0.831 | 0.691 | 0.845 | 1.08 | 0.893 | 0.853 | 0.74 | 0.725 | 0.942 | 0.643 | 0.494 | 0.472 | 0.446 | 0.454 | 0.463 | 0.836 | 0.935 | 0.943
NCI-H647 | 0.521 | 0.526 | 0.57 | 0.584 | 0.826 | 0.92 | 0.965 | 0.836 | 0.621 | 0.938 | 1.1 | 0.942 | 0.181 | 0.154 | 0.147 | 0.167 | 0.151 | 0.549 | 0.799 | 0.887
NCI-H838 | 0.498 | 0.521 | 0.508 | 0.569 | 0.658 | 0.742 | 0.934 | 0.861 | 0.651 | 1.04 | 1.09 | 0.924 | 0.26 | 0.228 | 0.263 | 0.257 | 0.241 | 0.45 | 0.954 | 1.09
NCI-H1355 | 0.384 | 0.478 | 0.379 | 0.406 | 1.08 | 1.02 | 0.991 | 0.465 | 0.716 | 0.591 | 0.555 | 0.577 | 0.866 | 0.778 | 0.791 | 0.75 | 0.692 | 0.462 | 0.783 | 0.69
NCI-H1437 | 0.297 | 0.25 | 0.294 | 0.329 | 0.473 | 0.523 | 0.566 | 0.437 | 0.355 | 1.04 | 1.13 | 0.96 | 0.349 | 0.326 | 0.27 | 0.31 | 0.283 | 0.249 | 1.04 | 1.06
NCI-H1650 | 0.334 | 0.447 | 0.371 | 0.362 | 0.194 | 0.193 | 0.213 | 0.213 | 0.191 | 0.935 | 1.13 | 0.811 | 0.341 | 0.358 | 0.399 | 0.346 | 0.323 | 0.419 | 1.07 | 0.938
